Measured values reported in publication PMC8725837, “2-Arylquinolines as novel anticancer agents with dual EGFR/FAK kinase inhibitory activity: synthesis, biological evaluation, and molecular modelling insights” (Journal of Enzyme Inhibition and Medicinal Chemistry, 2021).

Columns and labels:
[1] = tested on: DLD-1 colorectal cancer cell line; test: MTT antiproliferative assay, DLD-1; details: for GI% DLD1: 10 µM, 24 h, MTT; for IC50: Homo sapiens, DLD-1, 24 h, read-out: IC50 DLD1 (half maximal growth inhibitory concentration)
Experimental: After the incubation of the tested compounds for 24 h, the percent growth inhibition (GI%) was calculated.
Cells were seeded at 1 × 10^4 cells/well and cultured overnight in a 96-well plate. […] Then, 150 µl DMSO was used to solubilise MTT formazan crystals. Finally, the plates were shaken, and the optical density was determined at 570 nm using ELISA plate reader. At least, three independent experiments were performed. Percentage of growth inhibition was determined as (1-[OD of treated cells/OD of control cells]). […] The IC50 values were calculated using Prism v0.8 software (GraphPad Software Inc., La Jolla, CA).

EGFR = EGFR (Homo sapiens, UniProt P00533); test: Z`-LYTE kinase inhibitory assay, EGFR
VEGFR-2 = target: T1, VEGFR-2 (Homo sapiens, UniProt P35968); test: Z`-LYTE kinase profiling, VEGFR-2; assay type: biochemical
T1 construct: purchased Invitrogen/Life Technologies
T1 sequence (P35968 20-1356): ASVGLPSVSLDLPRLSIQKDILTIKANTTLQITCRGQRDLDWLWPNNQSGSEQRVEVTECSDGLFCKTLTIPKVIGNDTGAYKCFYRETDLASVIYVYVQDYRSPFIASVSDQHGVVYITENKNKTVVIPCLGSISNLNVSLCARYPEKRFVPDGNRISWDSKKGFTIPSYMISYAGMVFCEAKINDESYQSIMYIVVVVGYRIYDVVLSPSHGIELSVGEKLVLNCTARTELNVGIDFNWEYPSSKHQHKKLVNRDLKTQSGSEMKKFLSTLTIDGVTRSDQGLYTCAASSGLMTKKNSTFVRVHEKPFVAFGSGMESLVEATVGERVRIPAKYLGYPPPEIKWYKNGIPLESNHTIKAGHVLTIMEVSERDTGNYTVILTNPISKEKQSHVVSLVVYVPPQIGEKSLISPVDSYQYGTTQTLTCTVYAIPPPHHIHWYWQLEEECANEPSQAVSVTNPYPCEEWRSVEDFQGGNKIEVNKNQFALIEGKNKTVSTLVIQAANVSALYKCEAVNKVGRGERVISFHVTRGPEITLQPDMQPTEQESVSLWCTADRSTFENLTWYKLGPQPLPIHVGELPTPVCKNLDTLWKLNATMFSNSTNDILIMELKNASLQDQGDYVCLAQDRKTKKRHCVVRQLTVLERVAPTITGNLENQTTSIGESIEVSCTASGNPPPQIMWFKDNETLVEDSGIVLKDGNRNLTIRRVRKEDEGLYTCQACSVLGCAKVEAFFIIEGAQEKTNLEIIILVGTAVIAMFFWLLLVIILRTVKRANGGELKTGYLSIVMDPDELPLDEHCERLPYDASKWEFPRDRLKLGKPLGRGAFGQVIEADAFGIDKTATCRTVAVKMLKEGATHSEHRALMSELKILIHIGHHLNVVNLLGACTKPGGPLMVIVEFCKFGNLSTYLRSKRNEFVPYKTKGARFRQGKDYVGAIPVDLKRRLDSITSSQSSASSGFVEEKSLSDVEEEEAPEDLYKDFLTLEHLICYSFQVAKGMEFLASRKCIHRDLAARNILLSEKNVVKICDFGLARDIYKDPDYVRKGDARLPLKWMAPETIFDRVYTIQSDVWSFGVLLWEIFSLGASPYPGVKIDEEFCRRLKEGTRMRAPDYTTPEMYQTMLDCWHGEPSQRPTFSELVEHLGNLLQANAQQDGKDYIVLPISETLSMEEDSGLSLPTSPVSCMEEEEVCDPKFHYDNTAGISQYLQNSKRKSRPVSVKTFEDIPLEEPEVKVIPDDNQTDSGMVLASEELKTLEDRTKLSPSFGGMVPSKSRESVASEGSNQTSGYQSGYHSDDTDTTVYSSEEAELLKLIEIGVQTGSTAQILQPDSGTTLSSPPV

c-Src = target: T2, c-Src (Homo sapiens, UniProt P12931); test: Z`-LYTE kinase profiling, c-Src; assay type: biochemical
T2 construct: purchased Invitrogen/Life Technologies
T2 sequence (P12931 whole entry): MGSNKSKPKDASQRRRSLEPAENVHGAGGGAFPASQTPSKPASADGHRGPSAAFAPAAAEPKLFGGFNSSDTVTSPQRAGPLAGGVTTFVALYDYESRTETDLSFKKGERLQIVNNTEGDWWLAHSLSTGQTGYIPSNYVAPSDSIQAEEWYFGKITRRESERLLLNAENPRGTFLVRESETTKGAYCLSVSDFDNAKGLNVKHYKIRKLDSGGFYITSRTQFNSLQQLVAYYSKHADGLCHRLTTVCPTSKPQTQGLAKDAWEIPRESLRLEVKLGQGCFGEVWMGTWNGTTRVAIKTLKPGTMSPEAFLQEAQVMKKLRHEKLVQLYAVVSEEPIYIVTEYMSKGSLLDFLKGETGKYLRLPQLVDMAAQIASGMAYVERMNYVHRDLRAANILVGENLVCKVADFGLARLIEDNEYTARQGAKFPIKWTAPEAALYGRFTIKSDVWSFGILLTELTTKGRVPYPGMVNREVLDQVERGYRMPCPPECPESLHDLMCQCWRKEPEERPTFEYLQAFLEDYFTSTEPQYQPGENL

IGF-1R = target: T3, IGF-1R (Homo sapiens, UniProt P08069); test: Z`-LYTE kinase profiling, IGF-1R; assay type: biochemical
T3 construct: purchased Invitrogen/Life Technologies
T3 sequence (P08069 31-1367): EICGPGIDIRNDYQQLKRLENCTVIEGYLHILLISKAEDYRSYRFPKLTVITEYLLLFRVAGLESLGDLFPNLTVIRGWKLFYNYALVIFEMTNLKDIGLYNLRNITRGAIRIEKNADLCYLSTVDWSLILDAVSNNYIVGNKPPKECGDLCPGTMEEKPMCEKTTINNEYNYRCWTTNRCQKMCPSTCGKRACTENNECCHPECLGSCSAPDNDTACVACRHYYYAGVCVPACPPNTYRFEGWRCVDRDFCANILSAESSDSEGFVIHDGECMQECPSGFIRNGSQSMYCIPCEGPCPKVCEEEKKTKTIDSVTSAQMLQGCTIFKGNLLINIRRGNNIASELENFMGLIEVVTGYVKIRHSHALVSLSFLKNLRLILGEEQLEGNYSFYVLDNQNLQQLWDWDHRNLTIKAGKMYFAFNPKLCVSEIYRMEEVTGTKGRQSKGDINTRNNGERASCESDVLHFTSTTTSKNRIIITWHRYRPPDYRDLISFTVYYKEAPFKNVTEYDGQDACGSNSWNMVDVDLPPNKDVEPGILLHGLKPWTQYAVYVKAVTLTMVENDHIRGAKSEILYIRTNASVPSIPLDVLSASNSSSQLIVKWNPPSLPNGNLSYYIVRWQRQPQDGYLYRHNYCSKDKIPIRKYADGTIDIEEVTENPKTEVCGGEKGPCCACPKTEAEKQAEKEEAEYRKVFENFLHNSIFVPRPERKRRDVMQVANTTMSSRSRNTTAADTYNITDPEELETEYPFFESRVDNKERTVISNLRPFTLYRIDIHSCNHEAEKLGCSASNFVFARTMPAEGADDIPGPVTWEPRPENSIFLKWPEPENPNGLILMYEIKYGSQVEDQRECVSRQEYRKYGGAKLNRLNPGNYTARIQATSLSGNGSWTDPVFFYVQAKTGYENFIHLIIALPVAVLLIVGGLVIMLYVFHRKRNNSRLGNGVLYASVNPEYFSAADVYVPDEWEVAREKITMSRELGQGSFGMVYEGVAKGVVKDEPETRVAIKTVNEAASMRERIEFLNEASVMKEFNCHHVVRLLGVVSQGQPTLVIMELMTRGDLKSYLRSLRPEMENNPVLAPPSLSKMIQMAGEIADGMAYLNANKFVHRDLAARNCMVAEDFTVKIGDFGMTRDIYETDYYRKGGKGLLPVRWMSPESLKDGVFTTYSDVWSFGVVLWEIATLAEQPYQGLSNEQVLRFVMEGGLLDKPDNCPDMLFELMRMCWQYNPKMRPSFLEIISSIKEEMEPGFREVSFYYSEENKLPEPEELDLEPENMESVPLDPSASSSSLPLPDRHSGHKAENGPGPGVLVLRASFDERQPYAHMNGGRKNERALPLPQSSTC

BTK = target: T4, BTK (Homo sapiens, UniProt Q06187); test: Z`-LYTE kinase profiling, BTK; assay type: biochemical
T4 construct: purchased Invitrogen/Life Technologies
T4 sequence (Q06187 whole entry): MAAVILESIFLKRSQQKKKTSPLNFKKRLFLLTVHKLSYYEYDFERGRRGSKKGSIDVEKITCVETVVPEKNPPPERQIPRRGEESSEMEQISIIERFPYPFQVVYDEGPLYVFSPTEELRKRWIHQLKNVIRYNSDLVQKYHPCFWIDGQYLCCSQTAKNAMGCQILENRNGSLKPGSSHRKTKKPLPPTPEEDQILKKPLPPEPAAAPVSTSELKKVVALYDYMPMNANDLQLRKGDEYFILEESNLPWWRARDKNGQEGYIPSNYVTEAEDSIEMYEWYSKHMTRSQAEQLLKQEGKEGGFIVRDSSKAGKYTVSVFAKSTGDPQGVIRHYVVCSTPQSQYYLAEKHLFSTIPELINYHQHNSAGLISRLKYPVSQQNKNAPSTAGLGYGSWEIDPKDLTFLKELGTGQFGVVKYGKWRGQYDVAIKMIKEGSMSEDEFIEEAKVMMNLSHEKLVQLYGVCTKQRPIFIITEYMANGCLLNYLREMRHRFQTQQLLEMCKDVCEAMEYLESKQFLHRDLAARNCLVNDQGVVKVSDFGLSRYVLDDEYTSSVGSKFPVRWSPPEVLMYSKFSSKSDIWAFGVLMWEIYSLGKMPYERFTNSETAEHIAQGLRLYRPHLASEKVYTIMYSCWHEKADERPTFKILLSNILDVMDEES

[2] = tested on: MCF-7 breast cancer cell line; test: MTT antiproliferative assay, MCF-7; assay type: cell-based; details: 10 µM, 24 h
Experimental: (§1) At least, three independent experiments were performed.

[3] = tested on: HCT-116 colorectal cancer cell line; test: MTT antiproliferative assay, HCT-116; details: for GI% HCT-116: 10 µM, 24 h, MTT; for IC50: Homo sapiens, HCT-116, 24 h, read-out: IC50 HCT-116 (half maximal growth inhibitory concentration)
recombinant human TOP1 = target: T5, recombinant human TOP1 (Homo sapiens, UniProt P11387); test: Topoisomerase I-mediated DNA cleavage assay; details: tested at 0.1, 1, 10, 100 µM
T5 sequence (P11387 1-765): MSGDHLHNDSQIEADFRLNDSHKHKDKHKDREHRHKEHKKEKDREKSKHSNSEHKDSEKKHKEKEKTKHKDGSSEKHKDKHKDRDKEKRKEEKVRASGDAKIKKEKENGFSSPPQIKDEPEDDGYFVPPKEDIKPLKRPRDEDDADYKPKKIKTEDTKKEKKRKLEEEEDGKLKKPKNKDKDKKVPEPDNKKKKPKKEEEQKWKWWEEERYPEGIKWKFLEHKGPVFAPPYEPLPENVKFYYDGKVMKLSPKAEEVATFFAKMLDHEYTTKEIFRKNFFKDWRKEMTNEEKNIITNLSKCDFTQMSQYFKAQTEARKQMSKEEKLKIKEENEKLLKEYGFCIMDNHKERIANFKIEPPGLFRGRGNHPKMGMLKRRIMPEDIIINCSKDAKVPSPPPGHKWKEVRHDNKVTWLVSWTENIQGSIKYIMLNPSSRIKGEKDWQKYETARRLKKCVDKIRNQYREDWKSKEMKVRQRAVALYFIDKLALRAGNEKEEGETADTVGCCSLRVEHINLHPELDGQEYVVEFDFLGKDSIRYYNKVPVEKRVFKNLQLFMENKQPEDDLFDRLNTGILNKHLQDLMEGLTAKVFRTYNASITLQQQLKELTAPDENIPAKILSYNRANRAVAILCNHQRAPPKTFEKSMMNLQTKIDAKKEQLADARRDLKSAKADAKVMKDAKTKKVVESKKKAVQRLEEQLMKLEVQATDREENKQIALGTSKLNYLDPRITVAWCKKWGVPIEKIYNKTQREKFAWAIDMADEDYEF

[4] = tested on: HeLa cervical cancer cell line; test: MTT antiproliferative assay, HeLa; assay type: cell-based; details: 10 µM, 24 h
Experimental: as §1

FAK = FAK (Homo sapiens, UniProt Q05397); test: Z`-LYTE kinase inhibitory assay, FAK
HER-2 = target: T6, HER-2 (Homo sapiens, UniProt P04626); test: Z`-LYTE kinase profiling, HER-2; assay type: biochemical
T6 construct: purchased Invitrogen/Life Technologies
T6 sequence (P04626 23-1255): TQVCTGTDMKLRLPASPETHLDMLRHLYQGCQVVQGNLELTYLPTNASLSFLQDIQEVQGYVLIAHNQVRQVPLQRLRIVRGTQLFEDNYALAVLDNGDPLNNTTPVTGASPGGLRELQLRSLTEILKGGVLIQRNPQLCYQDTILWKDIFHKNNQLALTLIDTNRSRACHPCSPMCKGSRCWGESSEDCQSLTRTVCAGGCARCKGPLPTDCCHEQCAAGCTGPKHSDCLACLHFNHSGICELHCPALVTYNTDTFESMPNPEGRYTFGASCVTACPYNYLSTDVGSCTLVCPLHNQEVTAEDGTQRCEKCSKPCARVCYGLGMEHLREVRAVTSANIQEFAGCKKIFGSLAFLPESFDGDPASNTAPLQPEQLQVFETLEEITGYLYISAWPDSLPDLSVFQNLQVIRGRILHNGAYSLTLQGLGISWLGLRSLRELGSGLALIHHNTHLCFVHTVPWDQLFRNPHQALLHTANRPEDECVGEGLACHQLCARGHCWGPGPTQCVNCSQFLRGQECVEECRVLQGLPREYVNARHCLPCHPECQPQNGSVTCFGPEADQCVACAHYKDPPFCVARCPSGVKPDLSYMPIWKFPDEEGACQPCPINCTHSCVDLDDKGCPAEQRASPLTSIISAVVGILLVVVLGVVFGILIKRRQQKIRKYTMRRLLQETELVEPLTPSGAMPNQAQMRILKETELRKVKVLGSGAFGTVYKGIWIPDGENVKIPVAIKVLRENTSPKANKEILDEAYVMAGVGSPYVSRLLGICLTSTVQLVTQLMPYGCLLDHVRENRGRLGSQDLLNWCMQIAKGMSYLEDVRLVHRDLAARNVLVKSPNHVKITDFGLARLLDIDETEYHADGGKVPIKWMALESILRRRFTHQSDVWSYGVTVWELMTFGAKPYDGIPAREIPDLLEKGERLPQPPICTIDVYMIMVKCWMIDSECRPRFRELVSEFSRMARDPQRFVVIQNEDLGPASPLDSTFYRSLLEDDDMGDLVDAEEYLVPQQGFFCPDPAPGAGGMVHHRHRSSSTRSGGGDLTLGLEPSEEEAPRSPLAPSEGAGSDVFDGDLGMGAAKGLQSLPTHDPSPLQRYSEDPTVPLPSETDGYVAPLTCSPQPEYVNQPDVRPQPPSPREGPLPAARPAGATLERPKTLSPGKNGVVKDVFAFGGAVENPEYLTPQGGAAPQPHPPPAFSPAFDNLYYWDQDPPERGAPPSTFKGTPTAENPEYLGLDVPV

[5] = tested on: MDMBA-231 breast cancer cell line; test: MTT antiproliferative assay, MDMBA-231; assay type: cell-based; details: 10 µM, 24 h
Experimental: as §1

FRK = target: T7, FRK (Homo sapiens, UniProt P42685); test: Z`-LYTE kinase profiling, FRK; assay type: biochemical
T7 construct: purchased Invitrogen/Life Technologies

VEGFR-1 = target: T8, VEGFR-1 (Homo sapiens, UniProt P17948); test: Z`-LYTE kinase profiling, VEGFR-1; assay type: biochemical
T8 construct: purchased Invitrogen/Life Technologies

SMILES | GI% DLD1 [1] [%] | IC50 [1] [nM] | IC50 (EGFR) [nM] | IC50 (VEGFR-2) [nM] | IC50 (c-Src) [nM] | IC50 (IGF-1R) [nM] | IC50 (BTK) [nM] | GI% MCF-7 [2] [%] | GI% HCT-116 [3] [%] | IC50 [3] [nM] | TOP1 inhibitory activity (semiquantitative score relative to 1 µM CPT) (recombinant human TOP1) | GI% Hela [4] [%] | melting point [°C] | IC50 (FAK) [nM] | IC50 (HER-2) [nM] | GI% MDMBA-231 [5] [%] | IC50 (FRK) [nM] | IC50 (VEGFR-1) [nM]
COc1cc2nc(-c3ccc(Cl)cc3)cc(OCCCn3ccnc3)c2cc1OC [6e, 4-(3-(1H-imidazol-1-yl)propoxy)-2–(4-chlorophenyl)-6,7-dimethoxyquinoline] | 15.79 | > 100000 | 157 ± 11.4 | 3760 | 198 | 2160 | 4940 | 5.34 | 22.03 | > 100000 | −/+ (−/+: 0–25% 1 µM CPT) | 22.36 | 209 to 211 | 211 ± 8.96 | 82.1 | 4.67 | 9000 | 7330
Clc1ccc(-c2cc(OCCCN3CCOCC3)c3cc(Br)ccc3n2)cc1 [16b, 4-(3-((6-bromo-2-(4-chlorophenyl)quinolin-4-yl)oxy)propyl)morpholine] | 55.82 | 8690 ± 2640 | 313 ± 15.3 | 3230 | 1320 | 3490 | 2880 | 19.38 | 87.61 | 4220 ± 1050 | 0 | 35.94 | 137 to 139 | 50.4 ± 4.81 | 2310 | 45.31 | 3130 | 1270
Clc1ccc(-c2cc(OCCCn3ccnc3)c3cc(Br)ccc3n2)cc1 [16a, 4-(3-(1H-imidazol-1-yl)propoxy)-6-bromo-2-(4-chlorophenyl)quinoline] | 60.08 | 8220 ± 1120 | 222 ± 8.25 | 3410 | 1350 | 5230 | 4800 | 22.97 | 76.17 | 6150 ± 1300 | 0 | 47.35 | 149 to 151 | 44.1 ± 3.26 | 2020 | 51.24 | 6150 | 1960
CN1CCN(CCCOc2cc(-c3ccc(C(F)(F)F)cc3)nc3ccccc23)CC1 [10a, 4-(3-(4-methylpiperazin-1-yl)propoxy)-2-(4-(trifluoromethyl)phenyl)quinoline] | 22.51 | > 100000 | 244 ± 8.41 | 8550 | 1030 | 198 | 4760 | 14.26 | 18.64 | > 100000 | 0 | 25.64 | 110 to 112 | 298.7 ± 1.94 | 1020 | 37.15 | 8910 | 4390
COc1cc2nc(-c3ccc(C)cc3)cc(OCCCN3CCN(C)CC3)c2cc1OC [6k, 6,7-dimethoxy-4–(3-(4-methylpiperazin-1-yl)propoxy)-2-(p-tolyl)quinoline] | 18.69 | > 100000 | 410 ± 12.7 | 5960 | 6450 | 2400 | 2760 | 17.49 | 22.15 | > 100000 | 0 | 11.32 | 128 to 130 | 158 ± 8.73 | 1350 | 8.64 | 3170 | 5040
COc1cc2nc(-c3ccc(C(F)(F)F)cc3)cc(OCCCn3ccnc3)c2cc1OC [6j, 4-(3-(1H-imidazol-1-yl)propoxy)-6,7-dimethoxy-2–(4-(trifluoromethyl)phenyl)quinoline] | 6.31 | > 100000 | 258 ± 11.9 | 392 | 186 | 219 | 185 | 14.67 | 2.46 | > 100000 | 0 | 5.67 | 217 to 219 | 186 ± 6.22 | 206 | 8.42 | 139 | 769
FC(F)(F)c1ccc(-c2cc(OCCCn3ccnc3)c3cc4c(cc3n2)OCO4)cc1 [12c, 8-(3-(1H-imidazol-1-yl)propoxy)-6-(4-(trifluoromethyl)phenyl)-[1,3]dioxolo[4,5-g]qui-noline] | 71.94 | 9120 ± 2110 | 247 ± 12.3 | 56.9 | 119 | 9000 | 99.5 | 43.27 | 80.49 | 6370 ± 1090 | 0 | 68.22 | 125 to 127 | 111 ± 8.94 | 169 | 61.94 | 4880 | 7720
COc1cc2nc(-c3ccc(C)cc3)cc(OCCCn3ccnc3)c2cc1OC [6o, 4-(3-(1H-imidazol-1-yl)propoxy)-6,7-dimethoxy-2-(p-tolyl)quinoline] | 12.36 | > 100000 | 256 ± 6.94 | 3620 | 3490 | 408 | 3830 | 5.36 | 1.08 | > 100000 | 0 | 9.16 | 203 to 205 | 205 ± 8.04 | 1380 | 8.64 | 786 | 511
COc1cc2nc(-c3ccc(Cl)cc3)cc(OCCCN3CCN(C)CC3)c2cc1OC [6a, 2-(4-chlorophenyl)-6,7-dimethoxy-4–(3-(4-methylpiperazin-1-yl)propoxy)quinoline] | 22.56 | > 100000 | 143 ± 2.54 | 268 | 783 | 1020 | 1590 | 17.34 | 31.34 | 65400 ± 4370 | −/+ (−/+: 0–25% 1 µM CPT) | 20.15 | 140 to 142 | 214.4 ± 1.09 | 1240 | 9.38 | 825 | 95.3
COc1cc2nc(-c3ccc(C)cc3)cc(OCCCNCC3CCCO3)c2cc1OC (stereo not drawn) [6n, 3-((6,7-dimethoxy-2-(p-tolyl)quinolin-4-yl)oxy)-N-((tetrahydrofuran-2-yl)methyl)propa-n-1-amine] | 81.34 | 6110 ± 1800 | 41.8 ± 2.34 | 1190 | 82.7 | 2810 | 819 | 58.15 | 64.26 | 8690 ± 940 | 0 | 71.12 | 60 to 62 | 44.4 ± 2.94 | 1390 | 14.39 | 2520 | 556
